Data taken from ChEMBL document CHEMBL3875189, “A benzo[b]thiophene-based selective type 4 S1P receptor agonist” (Bioorg Med Chem Lett, 2017).
The source made the active and inactive calls. No cut-off for these calls is given here.

Key:
[1] = biological target: T1, Sphingosine 1-phosphate receptor 4 (Homo sapiens, UniProt O95977); experiment: Activation of human S1PR4 expressed in CHO cells assessed as suppression of forskolin-induced intracellular cAMP level measured after 15 mins by ELISA; assay type: functional, cell-based
T1 sequence (O95977 whole entry): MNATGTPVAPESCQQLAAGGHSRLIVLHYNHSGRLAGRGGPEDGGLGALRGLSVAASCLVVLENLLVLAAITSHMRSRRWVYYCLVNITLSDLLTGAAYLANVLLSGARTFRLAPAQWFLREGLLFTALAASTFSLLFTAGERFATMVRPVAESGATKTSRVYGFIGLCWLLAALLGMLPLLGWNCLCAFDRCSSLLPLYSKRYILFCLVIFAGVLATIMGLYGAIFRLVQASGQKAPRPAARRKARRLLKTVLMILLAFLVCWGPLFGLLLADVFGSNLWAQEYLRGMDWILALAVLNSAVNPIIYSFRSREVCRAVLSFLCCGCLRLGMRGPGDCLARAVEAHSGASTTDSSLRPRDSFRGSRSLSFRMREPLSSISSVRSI

[2] = biological target: T2, Sphingosine 1-phosphate receptor 4 (Homo sapiens) (UniProt O95977); experiment: Activation of human S1PR4 expressed in CHO cells assessed as suppression of forskolin-induced intracellular cAMP level at 1 to 10 uM measured after 15 mins by ELISA; assay type: functional, cell-based
T2 sequence (whole entry): T1 sequence (O95977 whole entry)

[3] = biological target: Sphingosine 1-phosphate receptor 1 (Homo sapiens, UniProt P21453); experiment: Agonist activity at recombinant human S1PR1 expressed in CHO cell membranes assessed as [35S]GTP-gammaS binding measured after 1.5 hrs by TopCount scintillation counting method
Chain of Sphingosine 1-phosphate receptor 1 (P21453 whole entry): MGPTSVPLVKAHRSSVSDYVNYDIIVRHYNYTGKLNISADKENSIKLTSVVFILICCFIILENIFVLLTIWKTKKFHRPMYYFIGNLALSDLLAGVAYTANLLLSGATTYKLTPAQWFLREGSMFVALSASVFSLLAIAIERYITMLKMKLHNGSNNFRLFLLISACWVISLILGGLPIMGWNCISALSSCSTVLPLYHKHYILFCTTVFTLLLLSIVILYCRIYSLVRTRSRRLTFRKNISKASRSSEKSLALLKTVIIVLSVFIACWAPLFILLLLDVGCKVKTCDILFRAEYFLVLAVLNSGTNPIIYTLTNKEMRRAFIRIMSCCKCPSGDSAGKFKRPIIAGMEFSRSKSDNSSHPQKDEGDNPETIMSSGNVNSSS

[4] = biological target: T3, Sphingosine 1-phosphate receptor 5 (Homo sapiens, UniProt Q9H228); experiment: Agonist activity at recombinant human S1PR5 expressed in CHO cell membranes assessed as [35S]GTP-gammaS binding measured after 1.5 hrs by TopCount scintillation counting method
T3 sequence (Q9H228 whole entry): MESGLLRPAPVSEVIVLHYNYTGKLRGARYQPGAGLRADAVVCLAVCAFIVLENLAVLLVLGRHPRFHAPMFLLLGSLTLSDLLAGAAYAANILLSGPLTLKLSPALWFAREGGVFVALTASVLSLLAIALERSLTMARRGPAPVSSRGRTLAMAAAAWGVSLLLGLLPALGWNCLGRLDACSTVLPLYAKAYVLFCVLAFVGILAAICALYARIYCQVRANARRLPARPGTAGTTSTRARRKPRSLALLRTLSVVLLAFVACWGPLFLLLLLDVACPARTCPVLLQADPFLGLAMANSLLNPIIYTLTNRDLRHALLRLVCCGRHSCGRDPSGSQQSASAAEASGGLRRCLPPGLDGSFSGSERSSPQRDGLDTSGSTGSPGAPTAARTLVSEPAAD

[5] = biological target: T1, Sphingosine 1-phosphate receptor 4; experiment: Agonist activity at recombinant human S1PR4 expressed in CHO cell membranes assessed as [35S]GTP-gammaS binding measured after 1.5 hrs by TopCount scintillation counting method
[6] = biological target: T3, Sphingosine 1-phosphate receptor 5; experiment: Agonist activity at recombinant human S1PR5 expressed in CHO cell membranes assessed as [35S]GTP-gammaS binding measured after 1.5 hrs by TopCount scintillation counting method relative to S1P
[7] = biological target: Sphingosine 1-phosphate receptor 3 (Homo sapiens, UniProt Q99500); experiment: Agonist activity at recombinant human S1PR3 expressed in CHO cell membranes assessed as [35S]GTP-gammaS binding measured after 1.5 hrs by TopCount scintillation counting method
Chain of Sphingosine 1-phosphate receptor 3 (Q99500 whole entry): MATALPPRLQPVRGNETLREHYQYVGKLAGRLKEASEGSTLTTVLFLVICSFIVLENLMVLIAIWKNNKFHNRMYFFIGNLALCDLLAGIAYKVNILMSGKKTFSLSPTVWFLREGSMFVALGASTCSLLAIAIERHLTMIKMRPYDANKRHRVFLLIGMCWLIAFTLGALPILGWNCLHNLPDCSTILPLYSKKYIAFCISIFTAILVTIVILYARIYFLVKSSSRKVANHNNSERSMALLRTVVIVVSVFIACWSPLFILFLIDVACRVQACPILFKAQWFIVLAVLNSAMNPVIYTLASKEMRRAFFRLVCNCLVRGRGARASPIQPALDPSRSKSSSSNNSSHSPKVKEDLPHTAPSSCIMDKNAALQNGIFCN

[8] = biological target: Sphingosine 1-phosphate receptor 2 (Homo sapiens, UniProt O95136); experiment: Agonist activity at recombinant human S1PR2 expressed in CHO cell membranes assessed as [35S]GTP-gammaS binding measured after 1.5 hrs by TopCount scintillation counting method
Chain of Sphingosine 1-phosphate receptor 2 (O95136 whole entry): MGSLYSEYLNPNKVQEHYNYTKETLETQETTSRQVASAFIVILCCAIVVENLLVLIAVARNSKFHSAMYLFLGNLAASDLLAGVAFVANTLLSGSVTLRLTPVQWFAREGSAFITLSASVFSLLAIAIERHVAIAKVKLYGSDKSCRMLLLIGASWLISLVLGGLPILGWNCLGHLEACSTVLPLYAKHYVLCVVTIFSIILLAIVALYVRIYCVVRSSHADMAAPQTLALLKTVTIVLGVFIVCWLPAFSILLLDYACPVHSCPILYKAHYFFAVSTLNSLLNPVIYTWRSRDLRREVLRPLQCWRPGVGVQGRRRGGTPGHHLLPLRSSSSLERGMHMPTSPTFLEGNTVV

[9] = biological target: T2, Sphingosine 1-phosphate receptor 4 (Homo sapiens); experiment: Activation of human S1PR4 expressed in CHO cells assessed as ERK1/2 phosphorylation at 100 nM treated under serum-free condition post 1 day serum starvation measured after 5 mins by Western blot analysis; assay type: cell-based
[10] = biological target: T2, Sphingosine 1-phosphate receptor 4 (Homo sapiens); experiment: Activation of human S1PR4 expressed in CHO cells assessed as ERK1/2 phosphorylation at 10 uM treated under serum-free condition post 1 day serum starvation measured after 5 mins by Western blot analysis; assay type: cell-based

- EC50 [1]: 154 nM
- Activity [2]: Active
- EC50 [3]: > 100000 nM
- EC50 [4]: 370 nM
- EC50 [5]: 200 nM
- Efficacy [6]: 24%
- EC50 [7]: > 100000 nM
- EC50 [8]: > 100000 nM
- Activity [9]: Active
- Activity [10]: Active
SMILES: O=C(O)CCCNCc1cc2cccc(-c3ccc4ccccc4c3)c2s1
